Results: patent US20230218618A1, “ADMINISTRATION OF SUMO-ACTIVATING ENZYME INHIBITOR AND ANTI-CD38 ANTIBODIES” (MILLENNIUM PHARMACEUTICALS, INC., priority 2020, published 2023)

Key:
[1] = tested on: LP-1 human multiple myeloma cell line; experiment: Study 3: LP-1 xenograft human multiple myeloma subcutaneous tumor model; type: in vivo, CB17 SCID mice; conditions: for GRI%: vs vehicle
Procedure: (§1) Low tumor volumes can cause problems with the data analysis, so all measurements below 25 cubic mm (including 0 values) were excluded from the analysis. After this exclusion step, the tumor volume was assumed to follow an exponential growth model. More specifically, for a given animal and treatment group,
(§2) Pairwise comparisons were performed, where the mean growth rates were compared for various pairs of treatment conditions. The results were summarized using the growth rate inhibition (GRI). Suppose µT and µC are the mean tumor growth rates for the treatment and reference groups, respectively. Define
(§3) Here, µAB, µA, µB, and µControl are the mean growth rates for the combination, drug A, drug B, and control groups, respectively. As before, µv is the mean tumor growth rate for the vehicle group, which in most cases is the same as the control group. The standard error of the synergy score was calculated as the square root of the sum of squared standard errors across the four groups. The degrees of freedom were estimated using the Welch-Satterthwaite equation. A hypothesis test was performed to determine if the synergy score differed from 0. P-values were calculated by dividing the synergy score by its standard error and tested against a t-distribution (two-tailed) with the above-calculated degrees of freedom. A P value of less than 0.05 is statistically significant.
(§4) The combination results can be interpreted as follows. Statistically significant negative synergy scores indicate a synergistic combination (“Syn.”). Statistically significant positive synergy scores indicate a sub-additive combination (“Sub-add.”) when the combination performs better (i.e. has a lower growth rate) than the best performing single agent. Statistically significant positive synergy scores indicate an antagonistic combination (“Antag.”) when the combination performs worse than the best performing single agent. Scores that are not statistically significant should be considered additive (“Add.”).
LP-1 is a human multiple myeloma cell line. A LP-1 human xenograft tumor model was generated by subcutaneous inoculation with […] LP-1 cells (cell suspension) in 7 weeks old female CB17 SCID mice (Charles River Laboratories, 251 Ballardvale St., Wilmington, MA) in the flank. When the mean tumor volume reached approximately 100 mm^3, the animals were randomized into one vehicle control and seven treatment groups (n=8/group). Mice were then dosed with 20% HPβCD or Compound I-263a or daratumumab over a 35-day period. Tumor growth and body weight were measured twice per week during the treatment and post-treatment periods, and mice were humanely euthanized once they had reached their humane endpoint.
A 0.75 mg/mL stock solution of I-263a was formulated weekly in 20% HPβCD and administered IV based on an average body weight using a 0.2 mL dosing volume. Final dose I-263a received was 7.5 mg/kg. I-263a was administered on a BIW schedule for 5 weeks (Days 1, 4, 8, 11, 15, 18, 22, 25, 29 and 33). Daratumumab (anti-CD38 antibody) (Myoderm Medical Supplies, 48 E Main St., Norristown, PA 19401) was purchased at the beginning of the study and stored at 4° C. according to manufacturer’s instructions. Final dose daratumumab received was 2.5 mg/kg, 7.5 mg/kg, and 20 mg/kg based on average body weight. Daratumumab was administered intraperitoneally (IP) using a 0.1 mL dosing volume, on a BIW schedule for 5 weeks (Days 1, 4, 8, 11, 15, 18, 22, 25, 29 and 33).
(§5) Tumors were measured twice weekly using Vernier calipers. Tumor volumes were calculated using standard equation: V = W^2 × L/2, where V = volume, W = width, and L = length for the tumor. When mean tumor volumes reached approximately 100 mm^3, mice were randomized into control and treatment groups. Mice were randomized into 8 groups (n=8/group) and dosed with vehicle (20% HPβCD), I-263a, daratumumab, or the combination of I-263a plus daratumumab at doses and schedules as described above. […]

SUMO-activating enzyme = SUMO-activating enzyme (Homo sapiens, UniProt Q9UBT2); experiment: Biochemical assays of SUMO-activating enzyme inhibition
SUMO-activating enzyme, sequence (Q9UBT2 whole entry): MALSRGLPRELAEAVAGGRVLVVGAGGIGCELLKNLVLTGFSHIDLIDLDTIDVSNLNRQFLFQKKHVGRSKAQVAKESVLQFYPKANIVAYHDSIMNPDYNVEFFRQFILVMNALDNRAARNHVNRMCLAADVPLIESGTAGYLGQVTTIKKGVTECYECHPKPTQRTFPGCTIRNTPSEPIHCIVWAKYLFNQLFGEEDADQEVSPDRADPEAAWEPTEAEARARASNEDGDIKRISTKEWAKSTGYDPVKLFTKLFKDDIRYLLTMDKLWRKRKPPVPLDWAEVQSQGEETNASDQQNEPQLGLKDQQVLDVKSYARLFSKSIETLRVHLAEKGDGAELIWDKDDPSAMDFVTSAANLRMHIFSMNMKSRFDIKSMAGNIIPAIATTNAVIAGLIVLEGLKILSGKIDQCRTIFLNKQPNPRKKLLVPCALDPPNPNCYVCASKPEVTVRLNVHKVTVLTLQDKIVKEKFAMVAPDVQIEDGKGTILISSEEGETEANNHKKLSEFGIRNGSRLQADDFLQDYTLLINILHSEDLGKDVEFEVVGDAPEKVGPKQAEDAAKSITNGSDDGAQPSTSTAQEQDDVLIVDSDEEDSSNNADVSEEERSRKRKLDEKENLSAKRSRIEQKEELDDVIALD
SUMO-activating enzyme, sequence (Q9UBE0 whole entry partner): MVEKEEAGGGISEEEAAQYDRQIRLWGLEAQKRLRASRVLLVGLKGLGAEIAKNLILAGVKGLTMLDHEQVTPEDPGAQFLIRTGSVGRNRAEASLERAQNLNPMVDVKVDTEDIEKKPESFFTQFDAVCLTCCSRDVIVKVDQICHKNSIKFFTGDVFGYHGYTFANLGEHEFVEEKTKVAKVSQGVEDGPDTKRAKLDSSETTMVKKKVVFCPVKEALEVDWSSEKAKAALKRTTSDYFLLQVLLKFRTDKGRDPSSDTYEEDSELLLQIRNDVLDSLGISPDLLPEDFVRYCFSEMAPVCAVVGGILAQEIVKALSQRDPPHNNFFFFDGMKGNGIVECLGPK
SUMO-activating enzyme, sequence (P63165 1-97 partner limits assumed): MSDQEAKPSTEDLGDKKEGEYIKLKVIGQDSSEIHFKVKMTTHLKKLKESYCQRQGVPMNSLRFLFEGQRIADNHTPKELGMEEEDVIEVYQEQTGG

[2] = tested on: A20-hCD38 mouse B-cell lymphoma cell line engineered to express the human CD38 cell surface protein; experiment: Study 2: A20-hCD38 syngeneic mouse tumor model; type: in vivo, Balb/c mice; conditions: for GRI%: vs vehicle; for Tumor growth relative to vehicle-treated tumors (pairwise comparison): I-263a 7.5 mg/kg QW or 15 mg/kg Q2W, daratumumab 20 mg/kg BIW, or I-263a plus daratumumab, data up to Day 15, p < 0.001
Procedure: as §1, §2, §3, §4
A20-hCD38 is a mouse B-cell lymphoma cell line engineered to express the human CD38 cell surface protein. An A20-hCD38 syngeneic mouse tumor model was generated by subcutaneous inoculation with 5.0 × 10^6 cells (cell suspension) in 6 weeks old female Balb/c mice (Jackson Laboratory, 10 Discovery Dr., Farmington, CT) in the flank. When the mean tumor volume reached approximately 70 mm^3, the animals were randomized into one vehicle control and five treatment groups (n=8/group). Mice were dosed with 20% HPβCD or Compound I-263a or daratumumab over a 28-day period. Tumor growth and body weight were measured twice per week during the treatment and post-treatment periods, and mice were humanely euthanized once they had reached their humane endpoint.
A 1.575 mg/mL and a 0.788 mg/mL stock solution of I-263a was formulated weekly in 20% HPβCD and administered IV based on an average body weight using a 0.2 mL dosing volume. Final doses I-263a received were 15 mg/kg or 7.5 mg/kg, respectively. I-263a was administered on a QW or Q2W schedule for 4 weeks (Days 1, 8, 15, and 22). Daratumumab (anti-CD38 antibody) (Myoderm Medical Supplies, 48 E Main St., Norristown, PA 19401) was purchased at the beginning of the study and stored at 4° C. according to manufacturer’s instructions. Final dose daratumumab received was 20 mg/kg based on average body weight. Daratumumab was administered intraperitoneally (IP) using a 0.1 mL dosing volume, on a BIW schedule for 4 weeks (Days 1, 4, 8, 11, 15, 18, 22 and 25).
as §5, with “approximately 70” for “approximately 100”, “into 6” for “into 8”

[3] = tested on: RPMI-8226 human multiple myeloma cell line; experiment: Study 6: RPMI-8226 human multiple myeloma subcutaneous tumor model; type: in vivo, SCID mice; conditions: for Tumor growth compared to vehicle-treated tumors (pairwise comparison): I-263a 7.5 mg/kg BIW 2 weeks, daratumumab 2.5, 7.5 or 20 mg/kg BIW 2 weeks, or both, p > 0.05; for GRI%: vs vehicle
[4] = tested on: SUMO-activating enzyme and SUMOylation; experiment: Inhibition of SUMO-activating enzyme and SUMOylation in cultured tumor cell lines; type: cell-based; conditions: cultured mouse and human tumor cell lines
[5] = I-263a 7.5 mg/kg BIW 5 weeks (p < 0.01), daratumumab 20 mg/kg (p < 0.01), I-263a 7.5 mg/kg BIW with daratumumab 2.5, 7.5 or 20 mg/kg (p < 0.001)

`Cc1sc(C(=O)c2cncnc2N[C@@H]2C[C@H](COS(N)(=O)=O)[C@@H](O)C2)cc1[C@@H]1NCCc2ccc(Cl)cc21` [Compound I-263a, [(1R,2S,4R)-4-{[5-({4-[(1R)-7-chloro-1,2,3,4-tetrahydroisoquinolin-1-yl]-5-methyl-2-thienyl}carbonyl)pyrimidin-4-yl]amino}-2-hydroxycyclopentyl]methyl sulfamate] was tested, and the “Tumor growth compared to vehicle treated mice (pairwise comparison)” value [1, 5] was “significant tumor growth inhibition”, the “Tumor volume on Day 17 (± SEM)” value ([1]; I-263a 7.5 mg/kg BIW IV) was 1043.3 ± 260.1 and the GRI% ([1]; I-263a 7.5 mg/kg BIW IV) was 15%. The “Inhibition of SUMO-activating enzyme activity” value (SUMO-activating enzyme; mechanism-based inhibitor forming a covalent adduct with SUMO) was “potently inhibits enzyme activity”, the “Selectivity for SUMO-activating enzyme” value (SUMO-activating enzyme; over ubiquitin-activating enzyme, Nedd8-activating enzyme, and autophagy related 7 enzyme) was “Strong selectivity” and the “Tumor volume on Day 15 (± SEM)” value ([2]; I-263a 7.5 mg/kg QW IV) was 613.1 ± 179.3. For the same compound, the GRI% ([2]; I-263a 7.5 mg/kg QW IV) was 37%, the “Tumor growth relative to vehicle-treated tumors (pairwise comparison)” value [2] was “significant tumor growth inhibition” and the “Tumor volume on Day 15 (± SEM)” value ([2]; I-263a 15 mg/kg Q2W IV) was 839.7 ± 229.7. The GRI% ([2]; I-263a 15 mg/kg Q2W IV) was 24%, the “Tumor growth compared to vehicle-treated tumors (pairwise comparison)” value [3] was “not significantly different than vehicle-treated tumors” and the “Tumor volume on Day 20 (± SEM)” value ([3]; I-263a 7.5 mg/kg BIW IV) was 1763.2 ± 213.2. The GRI% ([3]; I-263a 7.5 mg/kg BIW IV) was -12% and the “Inhibition of SUMO-activating enzyme and SUMOylation in cells” value [4] was “Selective and potent inhibition”.

With “Daratumumab: immunoglobulin G1 kappa (IgG1κ) human monoclonal antibody against CD38 antigen” the “Tumor volume on Day 17 (± SEM)” value ([1]; Daratumumab 2.5 mg/kg BIW IP) was 988.8 ± 183.4, the GRI% ([1]; Daratumumab 2.5 mg/kg BIW IP) was 16% and the “Tumor volume on Day 17 (± SEM)” value ([1]; Daratumumab 7.5 mg/kg BIW IP) was 1204.8 ± 190.1. The GRI% ([1]; Daratumumab 7.5 mg/kg BIW IP) was 8%, the “Tumor volume on Day 17 (± SEM)” value ([1]; Daratumumab 20 mg/kg BIW IP) was 1078 ± 207.7 and the GRI% ([1]; Daratumumab 20 mg/kg BIW IP) was 10%. For the same compound, the “Tumor growth compared to vehicle treated mice (pairwise comparison)” value [1, 5] was “significant tumor growth inhibition”, the “Tumor growth compared to vehicle treated mice (pairwise comparison)” value ([1]; daratumumab 2.5 mg/kg or 7.5 mg/kg single agent, p > 0.05) was “not significantly different from vehicle treated mice” and the “Tumor volume on Day 15 (± SEM)” value ([2]; Daratumumab 20 mg/kg BIW IP) was 1443.7 ± 276.4. For the same compound, the GRI% ([2]; Daratumumab 20 mg/kg BIW IP) was 3%, the “Tumor growth relative to vehicle-treated tumors (pairwise comparison)” value [2] was “significant tumor growth inhibition” and the “Tumor volume on Day 20 (± SEM)” value ([3]; Daratumumab 2.5 mg/kg BIW IP) was 1875.5 ± 170.1. The GRI% ([3]; Daratumumab 2.5 mg/kg BIW IP) was -6%, the “Tumor volume on Day 20 (± SEM)” value ([3]; Daratumumab 7.5 mg/kg BIW IP) was 1510.7 ± 144.6 and the GRI% ([3]; Daratumumab 7.5 mg/kg BIW IP) was -2%. The “Tumor volume on Day 20 (± SEM)” value ([3]; Daratumumab 20 mg/kg BIW IP) was 1456.6 ± 166.6, the GRI% ([3]; Daratumumab 20 mg/kg BIW IP) was 11% and the “Tumor growth compared to vehicle-treated tumors (pairwise comparison)” value [3] was “not significantly different than vehicle-treated tumors”.
